Results taken from ChEMBL document CHEMBL1955765, “Wake-promoting agents: search for next generation modafinil: part II” (Bioorg Med Chem Lett, 2012).

Legend:
Cytochrome P450 2C9 = Cytochrome P450 2C9 (Homo sapiens, UniProt P11712); assay: Inhibition of CYP2C9 in human microsome; assay type: ADME
Cytochrome P450 1A1 = target: T1, Cytochrome P450 1A1 (Homo sapiens, UniProt P04798); assay: (§1) Inhibition of CYP1A1 in human microsome at 100 uM; assay type: ADME, microsomes; settings: microsomes, 100 µM
T1 sequence (P04798 whole entry): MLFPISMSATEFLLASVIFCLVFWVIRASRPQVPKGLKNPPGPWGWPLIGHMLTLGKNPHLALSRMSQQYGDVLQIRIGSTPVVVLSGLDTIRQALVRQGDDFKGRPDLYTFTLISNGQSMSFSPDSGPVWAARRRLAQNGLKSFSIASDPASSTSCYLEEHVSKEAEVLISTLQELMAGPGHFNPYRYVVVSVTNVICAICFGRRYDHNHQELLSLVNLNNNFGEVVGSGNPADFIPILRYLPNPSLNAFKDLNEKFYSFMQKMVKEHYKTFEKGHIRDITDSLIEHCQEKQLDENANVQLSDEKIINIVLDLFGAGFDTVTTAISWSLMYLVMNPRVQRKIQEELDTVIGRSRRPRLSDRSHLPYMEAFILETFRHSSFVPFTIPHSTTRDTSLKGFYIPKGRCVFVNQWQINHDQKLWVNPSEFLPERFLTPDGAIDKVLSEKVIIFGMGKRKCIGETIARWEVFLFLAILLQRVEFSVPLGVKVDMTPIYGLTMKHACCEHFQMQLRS

Rattus norvegicus = assay: Wake promoting activity in Sprague-Dawley rat assessed as increase of wake duration at 100 mg/kg, ip after 4 hrs (reference value: 79.2 +/- 7.2 mins); assay type: functional; settings: route intraperitoneal
[1] = target: Sodium-dependent serotonin transporter (Rattus norvegicus, UniProt P31652); assay: Inhibition of rat SERT-mediated uptake
Sodium-dependent serotonin transporter, sequence (P31652 whole entry): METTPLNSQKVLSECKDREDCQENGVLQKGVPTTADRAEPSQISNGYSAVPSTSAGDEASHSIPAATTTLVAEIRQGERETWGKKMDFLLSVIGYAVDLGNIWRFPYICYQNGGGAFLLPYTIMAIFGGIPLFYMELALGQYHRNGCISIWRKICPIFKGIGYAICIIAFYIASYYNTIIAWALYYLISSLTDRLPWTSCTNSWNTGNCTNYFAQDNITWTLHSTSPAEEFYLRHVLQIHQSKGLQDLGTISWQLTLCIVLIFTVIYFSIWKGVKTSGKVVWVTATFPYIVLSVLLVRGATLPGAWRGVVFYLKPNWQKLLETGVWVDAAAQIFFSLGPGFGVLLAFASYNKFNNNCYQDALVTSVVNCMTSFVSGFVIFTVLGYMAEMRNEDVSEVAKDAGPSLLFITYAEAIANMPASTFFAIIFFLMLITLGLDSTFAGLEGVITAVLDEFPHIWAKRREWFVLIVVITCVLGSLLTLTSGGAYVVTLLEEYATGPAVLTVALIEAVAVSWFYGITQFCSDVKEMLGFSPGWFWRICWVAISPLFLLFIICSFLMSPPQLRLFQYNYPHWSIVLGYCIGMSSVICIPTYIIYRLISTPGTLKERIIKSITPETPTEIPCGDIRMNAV

Cytochrome P450 1A2 = target: T2, Cytochrome P450 1A2 (Homo sapiens, UniProt P05177); assay: (§2) Inhibition of CYP1A2 in human microsome at 100 uM; assay type: ADME, microsomes; settings: microsomes, 100 µM
T2 sequence (P05177 whole entry): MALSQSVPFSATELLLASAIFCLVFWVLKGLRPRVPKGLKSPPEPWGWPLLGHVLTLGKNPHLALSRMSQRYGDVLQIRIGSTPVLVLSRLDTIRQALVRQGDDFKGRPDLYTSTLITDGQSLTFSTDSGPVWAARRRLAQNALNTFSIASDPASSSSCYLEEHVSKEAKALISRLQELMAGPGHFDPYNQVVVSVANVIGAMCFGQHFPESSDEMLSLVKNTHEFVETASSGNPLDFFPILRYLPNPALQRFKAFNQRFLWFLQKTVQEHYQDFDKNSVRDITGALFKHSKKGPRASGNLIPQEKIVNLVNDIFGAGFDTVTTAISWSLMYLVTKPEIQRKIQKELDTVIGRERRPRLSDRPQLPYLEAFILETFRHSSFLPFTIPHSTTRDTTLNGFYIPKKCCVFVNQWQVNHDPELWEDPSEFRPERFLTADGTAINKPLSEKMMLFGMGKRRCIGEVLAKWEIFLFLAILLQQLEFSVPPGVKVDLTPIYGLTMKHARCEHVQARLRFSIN

Cytochrome P450 3A5 = Cytochrome P450 3A5 (Homo sapiens, UniProt P20815); assay: Inhibition of CYP3A5 in human microsome; assay type: ADME
Cytochrome P450 3A5, sequence (P20815 whole entry): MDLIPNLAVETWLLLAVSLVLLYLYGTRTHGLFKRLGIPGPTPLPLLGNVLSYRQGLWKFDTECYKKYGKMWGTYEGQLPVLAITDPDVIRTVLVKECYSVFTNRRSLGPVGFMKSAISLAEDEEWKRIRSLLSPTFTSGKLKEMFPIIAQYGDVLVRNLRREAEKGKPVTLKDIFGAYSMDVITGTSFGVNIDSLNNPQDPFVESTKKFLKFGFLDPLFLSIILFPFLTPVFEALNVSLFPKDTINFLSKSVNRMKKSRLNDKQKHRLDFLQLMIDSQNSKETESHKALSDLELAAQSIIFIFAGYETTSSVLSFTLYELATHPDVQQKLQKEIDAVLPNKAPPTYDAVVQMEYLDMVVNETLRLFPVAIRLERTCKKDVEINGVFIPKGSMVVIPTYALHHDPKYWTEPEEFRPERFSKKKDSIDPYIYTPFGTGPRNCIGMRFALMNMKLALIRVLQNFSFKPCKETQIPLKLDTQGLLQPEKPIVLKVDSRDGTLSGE

Cytochrome P450 2D6 = Cytochrome P450 2D6 (Homo sapiens, UniProt P10635); assay: Inhibition of CYP2D6 in human microsome; assay type: ADME
Cytochrome P450 2D6, sequence (P10635 whole entry): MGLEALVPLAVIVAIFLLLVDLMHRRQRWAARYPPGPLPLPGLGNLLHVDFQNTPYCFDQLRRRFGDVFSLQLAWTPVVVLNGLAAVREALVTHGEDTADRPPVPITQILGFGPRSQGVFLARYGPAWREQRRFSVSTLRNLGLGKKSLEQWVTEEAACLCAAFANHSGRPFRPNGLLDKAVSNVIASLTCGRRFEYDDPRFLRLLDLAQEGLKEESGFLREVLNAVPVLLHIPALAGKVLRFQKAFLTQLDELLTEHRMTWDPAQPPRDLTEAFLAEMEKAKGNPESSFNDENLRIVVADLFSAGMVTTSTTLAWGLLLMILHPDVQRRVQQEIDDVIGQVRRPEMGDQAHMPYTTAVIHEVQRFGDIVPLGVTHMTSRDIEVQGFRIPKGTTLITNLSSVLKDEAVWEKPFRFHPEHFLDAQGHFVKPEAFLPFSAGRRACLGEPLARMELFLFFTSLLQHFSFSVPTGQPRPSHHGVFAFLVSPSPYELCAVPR

[2] = target: T3, Sodium-dependent dopamine transporter (Rattus norvegicus, UniProt P23977); assay: Inhibition of rat DAT-mediated uptake
T3 sequence (P23977 whole entry): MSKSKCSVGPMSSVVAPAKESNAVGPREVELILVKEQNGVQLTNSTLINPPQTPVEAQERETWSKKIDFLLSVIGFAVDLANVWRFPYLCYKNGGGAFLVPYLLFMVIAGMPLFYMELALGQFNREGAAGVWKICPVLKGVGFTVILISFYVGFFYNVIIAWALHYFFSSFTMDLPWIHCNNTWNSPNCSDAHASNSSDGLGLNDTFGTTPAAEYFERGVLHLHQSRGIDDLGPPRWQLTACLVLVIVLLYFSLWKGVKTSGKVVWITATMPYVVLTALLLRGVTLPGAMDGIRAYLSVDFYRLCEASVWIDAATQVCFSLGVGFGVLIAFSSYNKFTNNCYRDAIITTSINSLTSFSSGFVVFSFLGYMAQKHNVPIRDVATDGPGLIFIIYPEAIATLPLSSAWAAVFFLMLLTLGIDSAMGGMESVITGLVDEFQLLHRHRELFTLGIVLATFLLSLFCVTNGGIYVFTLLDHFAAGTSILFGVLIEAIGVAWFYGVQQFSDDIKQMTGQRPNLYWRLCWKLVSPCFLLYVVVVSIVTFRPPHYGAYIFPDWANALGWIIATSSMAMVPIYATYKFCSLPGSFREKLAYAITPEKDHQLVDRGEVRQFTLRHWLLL

Cytochrome P450 2C19 = Cytochrome P450 2C19 (Homo sapiens, UniProt P33261); assay: Inhibition of CYP2C19 in human microsome; assay type: ADME
Cytochrome P450 2C19, sequence (P33261 whole entry): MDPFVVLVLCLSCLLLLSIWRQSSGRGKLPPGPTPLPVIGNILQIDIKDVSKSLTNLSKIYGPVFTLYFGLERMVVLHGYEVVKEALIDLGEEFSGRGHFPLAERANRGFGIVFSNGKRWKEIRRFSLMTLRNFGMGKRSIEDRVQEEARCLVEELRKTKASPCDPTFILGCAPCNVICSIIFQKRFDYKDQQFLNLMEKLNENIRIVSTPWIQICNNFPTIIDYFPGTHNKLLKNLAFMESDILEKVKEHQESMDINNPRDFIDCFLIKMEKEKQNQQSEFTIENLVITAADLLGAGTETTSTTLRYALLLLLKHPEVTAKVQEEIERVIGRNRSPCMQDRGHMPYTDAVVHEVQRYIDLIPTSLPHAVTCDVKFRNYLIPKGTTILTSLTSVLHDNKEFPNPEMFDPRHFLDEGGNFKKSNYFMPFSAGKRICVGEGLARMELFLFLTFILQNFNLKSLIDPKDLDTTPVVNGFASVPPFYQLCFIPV

[3] = target: T3, Sodium-dependent dopamine transporter; assay: Inhibition of rat DAT
Cytochrome P450 3A4 = Cytochrome P450 3A4 (Homo sapiens, UniProt P08684); assay: Inhibition of CYP3A4 in human microsome; assay type: ADME
Cytochrome P450 3A4, sequence (P08684 whole entry): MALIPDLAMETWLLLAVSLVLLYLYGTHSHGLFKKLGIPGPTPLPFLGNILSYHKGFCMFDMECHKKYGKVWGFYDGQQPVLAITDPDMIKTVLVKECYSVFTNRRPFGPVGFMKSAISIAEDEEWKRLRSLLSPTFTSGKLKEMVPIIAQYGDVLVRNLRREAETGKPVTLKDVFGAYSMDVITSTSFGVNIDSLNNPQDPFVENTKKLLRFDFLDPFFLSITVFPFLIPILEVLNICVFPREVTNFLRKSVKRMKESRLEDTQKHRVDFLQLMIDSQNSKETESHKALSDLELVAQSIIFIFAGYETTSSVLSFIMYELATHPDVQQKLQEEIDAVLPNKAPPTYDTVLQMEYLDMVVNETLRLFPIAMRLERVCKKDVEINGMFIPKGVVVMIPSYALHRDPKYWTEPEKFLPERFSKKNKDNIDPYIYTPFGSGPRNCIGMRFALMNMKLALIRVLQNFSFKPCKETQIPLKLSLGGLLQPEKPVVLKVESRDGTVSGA

Transporter = Transporter (Rattus norvegicus, UniProt Q63380); assay: Inhibition of rat NET-mediated uptake
Transporter, sequence (Q63380 whole entry): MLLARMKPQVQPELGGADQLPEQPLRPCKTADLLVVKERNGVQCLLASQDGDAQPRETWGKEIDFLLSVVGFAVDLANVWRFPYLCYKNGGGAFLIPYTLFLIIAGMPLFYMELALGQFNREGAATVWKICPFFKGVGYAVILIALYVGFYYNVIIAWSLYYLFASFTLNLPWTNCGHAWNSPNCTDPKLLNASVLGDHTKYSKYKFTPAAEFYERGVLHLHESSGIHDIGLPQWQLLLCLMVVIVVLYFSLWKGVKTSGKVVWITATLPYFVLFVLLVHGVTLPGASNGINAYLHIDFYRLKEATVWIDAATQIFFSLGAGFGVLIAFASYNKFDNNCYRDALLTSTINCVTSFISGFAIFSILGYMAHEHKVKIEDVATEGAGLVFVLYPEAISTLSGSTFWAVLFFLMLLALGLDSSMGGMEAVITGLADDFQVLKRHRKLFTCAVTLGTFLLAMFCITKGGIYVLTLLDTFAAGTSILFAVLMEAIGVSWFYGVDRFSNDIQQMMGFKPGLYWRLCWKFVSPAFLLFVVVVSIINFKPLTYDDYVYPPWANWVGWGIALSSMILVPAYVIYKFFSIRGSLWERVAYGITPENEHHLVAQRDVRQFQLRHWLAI

[4] = target: Transporter (Rattus norvegicus) (UniProt Q63380); assay: Inhibition of rat NET at 10 uM
Transporter (Rattus norvegicus), sequence (Q63380 as listed by the source): as the sequence (Q63380 whole entry) above

[5] = target: Sodium-dependent serotonin transporter (Rattus norvegicus) (UniProt P31652); assay: Inhibition of rat SERT at 10 uM
Sodium-dependent serotonin transporter (Rattus norvegicus), sequence (P31652 whole entry): as the sequence (P31652 whole entry) above

CYP1A1 = target: T4, CYP1A1 (Homo sapiens, UniProt P04798); assay: as §1; assay type: ADME, microsomes; settings: human microsomes
T4 sequence (P04798 whole entry): T1 sequence (P04798 whole entry)

CYP1A2 = target: T5, CYP1A2 (Homo sapiens, UniProt P05177); assay: as §2; assay type: ADME, microsomes; settings: human microsomes
T5 sequence (P05177 whole entry): T2 sequence (P05177 whole entry)

Cytochrome P450 2C9, sequence (P11712 whole entry): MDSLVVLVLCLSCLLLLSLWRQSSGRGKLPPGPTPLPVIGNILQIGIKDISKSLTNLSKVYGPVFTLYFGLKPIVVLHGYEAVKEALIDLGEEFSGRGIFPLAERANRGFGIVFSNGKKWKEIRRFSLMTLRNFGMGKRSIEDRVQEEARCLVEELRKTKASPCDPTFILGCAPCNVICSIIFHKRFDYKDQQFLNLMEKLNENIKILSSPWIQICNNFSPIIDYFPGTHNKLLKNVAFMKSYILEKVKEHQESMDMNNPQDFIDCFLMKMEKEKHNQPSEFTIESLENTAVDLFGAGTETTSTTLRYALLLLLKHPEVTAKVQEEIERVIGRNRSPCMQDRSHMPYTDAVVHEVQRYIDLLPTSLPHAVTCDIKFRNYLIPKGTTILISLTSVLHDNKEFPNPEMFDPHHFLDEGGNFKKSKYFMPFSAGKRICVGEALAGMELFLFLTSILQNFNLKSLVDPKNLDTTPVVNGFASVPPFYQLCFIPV

NC(=O)C[S+]([O-])Cc1ccccc1-c1ccc(Cl)cc1 (single isomer, unassigned; (+)) [listing 1 of 2 here]
IC50 (Cytochrome P450 2C9): 129 µM | inhibition (INH) (Cytochrome P450 1A1): 20% | Time (Rattus norvegicus): 227.1 min | IC50 [1]: > 300 µM | inhibition (INH) (Cytochrome P450 1A2): 20% | IC50 (Cytochrome P450 3A5): 159 µM | IC50 (Cytochrome P450 2D6): 151 µM | IC50 [2]: 3.8 µM | IC50 (Cytochrome P450 2C19): 112 µM | IC50 [3]: 4.2 µM | IC50 (Cytochrome P450 3A4): 159 µM | IC50 (Transporter): 32 µM

NC(=O)C[S+]([O-])Cc1ccccc1-c1ccc(Cl)cc1 (single isomer, unassigned; (+)) [listing 2 of 2 here]
inhibition [4]: 12% | inhibition [5]: 4%

NC(=O)C[S+]([O-])Cc1ccccc1-c1ccc(Cl)cc1 (single isomer, unassigned; (-)) [listing 1 of 2 here]
IC50 (Cytochrome P450 2C9): 233 µM | inhibition at 100 µM (CYP1A1): 14% | Time (Rattus norvegicus): 238.5 min | IC50 [1]: > 300 µM | inhibition at 100 µM (CYP1A2): 14% | IC50 (Cytochrome P450 3A5): 139 µM | IC50 (Cytochrome P450 2D6): 177 µM | IC50 (Cytochrome P450 2C19): 174 µM | IC50 [3]: 0.4 µM | IC50 (Cytochrome P450 3A4): 139 µM | IC50 (Transporter): 11 µM

NC(=O)C[S+]([O-])Cc1ccccc1-c1ccc(Cl)cc1 (single isomer, unassigned; (-)) [listing 2 of 2 here]
inhibition [4]: 16% | inhibition [5]: 3%
